Experiment: mn = molality of the nth substance listed, in mol/kg
Details: Liquid

CCCO [propan-1-ol] + O
Details	mass density [kg/m3]
292.05 K, 101 kPa, Pycnometric method, m1 = 0.869	991.42
293.45 K, 101 kPa, Pycnometric method, m1 = 2.936	980.4
294.85 K, 101 kPa, Pycnometric method, m1 = 56.35	851.23
295.15 K, 101 kPa, Pycnometric method, m1 = 0.869	990.4
298.15 K, 101 kPa, Pycnometric method, m1 = 0.869	989.5
298.15 K, 101 kPa, Pycnometric method, m1 = 2.936	978.54
298.15 K, 5000 kPa, Constant-volume piezometry, m1 = 0.869	990.5
298.15 K, 5000 kPa, Constant-volume piezometry, m1 = 2.465	980.7
298.15 K, 10000 kPa, Constant-volume piezometry, m1 = 0.869	992.6
298.15 K, 10000 kPa, Constant-volume piezometry, m1 = 2.465	982.7
298.15 K, 20000 kPa, Constant-volume piezometry, m1 = 0.869	996.7
298.15 K, 20000 kPa, Constant-volume piezometry, m1 = 2.465	986.6
298.15 K, 30000 kPa, Constant-volume piezometry, m1 = 0.869	1000.6
298.15 K, 30000 kPa, Constant-volume piezometry, m1 = 2.465	990.3
298.15 K, 40000 kPa, Constant-volume piezometry, m1 = 0.869	1004.4
298.15 K, 40000 kPa, Constant-volume piezometry, m1 = 2.465	993.8
302.13 K, 2844 kPa, Constant-volume piezometry, m1 = 14.38	910.6
302.13 K, 7747 kPa, Constant-volume piezometry, m1 = 14.38	913.1
302.13 K, 13631 kPa, Constant-volume piezometry, m1 = 14.38	915.8
302.8 K, 101 kPa, Pycnometric method, m1 = 2.531	974.74
302.8 K, 101 kPa, Pycnometric method, m1 = 7.407	941.25
302.8 K, 101 kPa, Pycnometric method, m1 = 14.38	908.75
303.15 K, 5000 kPa, Constant-volume piezometry, m1 = 0.869	988.8
303.15 K, 5000 kPa, Constant-volume piezometry, m1 = 2.465	978.4
303.15 K, 10000 kPa, Constant-volume piezometry, m1 = 0.869	990.9
303.15 K, 10000 kPa, Constant-volume piezometry, m1 = 2.465	980.5
303.15 K, 20000 kPa, Constant-volume piezometry, m1 = 0.869	995
303.15 K, 20000 kPa, Constant-volume piezometry, m1 = 2.465	984.4
303.15 K, 30000 kPa, Constant-volume piezometry, m1 = 0.869	998.9
303.15 K, 30000 kPa, Constant-volume piezometry, m1 = 2.465	988
303.15 K, 40000 kPa, Constant-volume piezometry, m1 = 0.869	1002.7
303.15 K, 40000 kPa, Constant-volume piezometry, m1 = 2.465	991.6
303.2 K, 3334 kPa, Constant-volume piezometry, m1 = 2.531	975.9
303.2 K, 7708 kPa, Constant-volume piezometry, m1 = 2.531	977.7
304.65 K, 101 kPa, Pycnometric method, m1 = 2.936	975.69
306 K, 101 kPa, Pycnometric method, m1 = 56.35	842.18
307.99 K, 2942 kPa, Constant-volume piezometry, m1 = 56.35	872.9
307.99 K, 14220 kPa, Constant-volume piezometry, m1 = 56.35	880.4
308.55 K, 101 kPa, Pycnometric method, m1 = 0.869	986.52
312.07 K, 2844 kPa, Constant-volume piezometry, m1 = 7.407	936.5
312.07 K, 6865 kPa, Constant-volume piezometry, m1 = 7.407	938.7
312.07 K, 12160 kPa, Constant-volume piezometry, m1 = 7.407	941.1
312.65 K, 101 kPa, Pycnometric method, m1 = 2.531	969.82
312.65 K, 101 kPa, Pycnometric method, m1 = 7.407	934.48
312.65 K, 101 kPa, Pycnometric method, m1 = 14.38	901.37
313.75 K, 101 kPa, Pycnometric method, m1 = 2.936	971.27
320.75 K, 101 kPa, Pycnometric method, m1 = 56.35	829.47
322.35 K, 101 kPa, Pycnometric method, m1 = 2.936	966.49
323.15 K, 5000 kPa, Constant-volume piezometry, m1 = 0.869	980.8
323.15 K, 5000 kPa, Constant-volume piezometry, m1 = 2.465	968.2
323.15 K, 10000 kPa, Constant-volume piezometry, m1 = 0.869	982.9
323.15 K, 10000 kPa, Constant-volume piezometry, m1 = 2.465	970.3
323.15 K, 20000 kPa, Constant-volume piezometry, m1 = 0.869	986.9
323.15 K, 20000 kPa, Constant-volume piezometry, m1 = 2.465	974.3
323.15 K, 30000 kPa, Constant-volume piezometry, m1 = 0.869	990.8
323.15 K, 30000 kPa, Constant-volume piezometry, m1 = 2.465	978
323.15 K, 40000 kPa, Constant-volume piezometry, m1 = 0.869	994.5
323.15 K, 40000 kPa, Constant-volume piezometry, m1 = 2.465	981.6
326.05 K, 101 kPa, Pycnometric method, m1 = 2.531	962.17
326.05 K, 101 kPa, Pycnometric method, m1 = 7.407	924.78
326.05 K, 101 kPa, Pycnometric method, m1 = 14.38	890.78
331.05 K, 101 kPa, Pycnometric method, m1 = 56.35	820.42
340.85 K, 101 kPa, Pycnometric method, m1 = 2.531	952.6
340.85 K, 101 kPa, Pycnometric method, m1 = 7.407	913.42
340.85 K, 101 kPa, Pycnometric method, m1 = 14.38	878.68
342.49 K, 2353 kPa, Constant-volume piezometry, m1 = 14.38	877.9
342.49 K, 6159 kPa, Constant-volume piezometry, m1 = 14.38	880.3
342.49 K, 10199 kPa, Constant-volume piezometry, m1 = 14.38	882.7
342.49 K, 14455 kPa, Constant-volume piezometry, m1 = 14.38	885.4
343.48 K, 2942 kPa, Constant-volume piezometry, m1 = 7.407	913.7
343.48 K, 6767 kPa, Constant-volume piezometry, m1 = 7.407	915.8
343.48 K, 12690 kPa, Constant-volume piezometry, m1 = 7.407	919
343.94 K, 2353 kPa, Constant-volume piezometry, m1 = 2.531	950.6
343.94 K, 6374 kPa, Constant-volume piezometry, m1 = 2.531	952.5
343.94 K, 10787 kPa, Constant-volume piezometry, m1 = 2.531	954.3
347.63 K, 3668 kPa, Constant-volume piezometry, m1 = 56.35	838
347.63 K, 10120 kPa, Constant-volume piezometry, m1 = 56.35	843.1
348.15 K, 5000 kPa, Constant-volume piezometry, m1 = 0.869	967.9
348.15 K, 5000 kPa, Constant-volume piezometry, m1 = 2.465	952.7
348.15 K, 10000 kPa, Constant-volume piezometry, m1 = 0.869	970
348.15 K, 10000 kPa, Constant-volume piezometry, m1 = 2.465	954.9
348.15 K, 20000 kPa, Constant-volume piezometry, m1 = 0.869	974.1
348.15 K, 20000 kPa, Constant-volume piezometry, m1 = 2.465	959.1
348.15 K, 30000 kPa, Constant-volume piezometry, m1 = 0.869	978
348.15 K, 30000 kPa, Constant-volume piezometry, m1 = 2.465	963.1
348.15 K, 40000 kPa, Constant-volume piezometry, m1 = 0.869	981.8
348.15 K, 40000 kPa, Constant-volume piezometry, m1 = 2.465	966.8
349.85 K, 101 kPa, Pycnometric method, m1 = 2.531	946.25
349.85 K, 101 kPa, Pycnometric method, m1 = 7.407	906.29
349.85 K, 101 kPa, Pycnometric method, m1 = 14.38	870.71
352.05 K, 101 kPa, Pycnometric method, m1 = 56.35	801.03
373.15 K, 5000 kPa, Constant-volume piezometry, m1 = 0.869	951.6
373.15 K, 5000 kPa, Constant-volume piezometry, m1 = 2.465	934.2
373.15 K, 10000 kPa, Constant-volume piezometry, m1 = 0.869	953.9
373.15 K, 10000 kPa, Constant-volume piezometry, m1 = 2.465	937
373.15 K, 20000 kPa, Constant-volume piezometry, m1 = 0.869	958.3
373.15 K, 20000 kPa, Constant-volume piezometry, m1 = 2.465	941.3
373.15 K, 30000 kPa, Constant-volume piezometry, m1 = 0.869	962.4
373.15 K, 30000 kPa, Constant-volume piezometry, m1 = 2.465	945.7
373.15 K, 40000 kPa, Constant-volume piezometry, m1 = 0.869	966.3
373.15 K, 40000 kPa, Constant-volume piezometry, m1 = 2.465	949.7

Reference: the NIST ThermoML archive (doi:10.1016/j.jct.2013.11.036)
